According to patent US20230050846A1, “TREATMENT OF HEPATIC AND CARDIOVASCULAR DISORDERS” (LIFESEARCH, priority 2019, published 2023):
Like-named read-outs stand apart in the source and are kept apart here. Peptide text beside a SMILES is read from it. * marks the point of attachment. Palmitoyl = CCCCCCCCCCCCCCCC(=O)*

Experiment: Pharmacokinetics in mice (plasma, LC-MS/MS)
Type: in vivo, mouse
Conditions: 25 mg/kg; for MRT: read-out: MRT (mean residence time)
Description: The peptide of formula (I) and the peptide of formula (II) were analyzed in mouse EDTA plasma using a validated assay involving trypsin proteolysis and the subsequent analysis of a signature peptide (SEQ ID NO: 3) by liquid chromatography-tandem mass spectrometry (LC-MS/MS). The working solution of unlabeled peptide (SEQ ID NO: 3, 1 mM) was serially diluted in water to obtain 7 standard solutions ranging 0.05-5 μM. Plasma and standard samples (40 μL) were reduced, alkylated and trypsin-digested overnight using the ready-to-use solutions of the ProteinWorks™ eXpress kit (Waters Corporation, Milford, Mass., USA), according to the manufacturer's instructions (except trypsin incubation time optimized to 7 h). The working solution of the labeled proteotypic peptide ([SEQ ID NO: 4]-[^13C6, ^15N4]-K, 1 mM) was used as internal standard (IS) and added to the digestion buffer to a final concentration of 0.5 μM. After digestion, samples were cleaned using 30 mg Oasis HLB 1 cc Cartridges (Waters Corporation). Cartridges were conditioned, equilibrated, loaded, washed and eluted with methanol (1 mL), water (1 mL), samples (˜200 μL), 5% methanol containing 0.1% TFA (1 mL) and 60% methanol containing 0.1% TFA (1 mL), respectively. Eluates were dried under a nitrogen stream, reconstituted with 100 μL of 10% acetonitrile containing 0.1% formic acid, and 10 μL were injected into the LC-MS/MS system. LC-MS/MS analyses were performed on a Xevo® TQD mass spectrometer with an electrospray (ESI) interface and an Acquity H-Class® UPLC™ device (Waters Corporation). Proteotypic peptides were separated over 9 min on an Acquity® BEH C18 column (2.1×100 mm, 1.7 μm, Waters Corporation) held at 60° C. with a linear gradient of mobile phase B (100% acetonitrile) in mobile phase A (5% acetonitrile), each containing 0.1% formic acid, and at a flow rate of 600 μL/min. […] Proteotypic peptides were then detected by the mass spectrometer with the ESI interface operating in the positive ion mode (capillary voltage, 3 kV; desolvatation gas (N2) flow and temperature, 900 L/h and 400° C.; source temperature, 150° C.). The multiple reaction monitoring mode was applied for MS/MS detection (SEQ ID NO: 3, m/z 368.8→536.5, y6^+; [SEQ ID NO: 4]-[^13C6, ^15N4]-K, m/z 372.8→544.4, y6) with cone and collision voltages set at 20 and 14 V, respectively. Data acquisition and analyses were performed with MassLynx® and TargetLynx® software, respectively (version 4.1, Waters Corporation). Chromatographic peak area ratio between unlabeled peptide and IS constituted the detector responses. Standard solutions were used to plot calibration curves for peptide quantification. The linearity was expressed by the mean r^2 which was greater than 0.998 (linear regression, 1/x weighting, origin excluded). […] The peptide of formula (I) and the peptide of formula (II) concentrations were expressed in μM assuming 1 mole of peptide equivalent to 1 mole of the peptide of formula (I) and the peptide of formula (II), respectively. Concentrations were then converted to their standard unit (ng/mL) assuming molecular weights of 3540 Da and 3917 Da for the peptide of formula (I) and the peptide of formula (II), respectively.
Wild-type C57B/L6J male mice were purchased from Janvier Labs (Le Genest Saint Isle, France). Mice were caged in animal rooms under specific pathogen free conditions at the animal facility of Rangueil (Anexplo platform, US006, Toulouse, France) with a light/dark schedule of 12 h/12 h and were fed ad libitum with a normal chow diet (#V1535 R/M-H, Ssniff, Germany). All animal experimental procedures were conducted in accordance with institutional guidelines on animal experimentation approved by the local ethical committee of animal care and are conformed to the guidelines from Directive 2010/63/EU of the European Parliament on the protection of animals used for scientific purposes or the NIH guideline. […]

[1] = male, C57B/L6J, mouse, plasma, sc
[2] = male, C57B/L6J, mouse, plasma, sc, sc
[3] = male, C57B/L6J, mouse, plasma, sc, sc, read-out: t1/2lbd1 (distribution half-life) (converted)
[4] = male, C57B/L6J, mouse, plasma, sc, sc, read-out: t1/2lbdz (elimination half-life) (converted)

| AUC [1] [ng·h/mL] | Cmax [1] [ng/mL] | Tmax [1] [min] | MRT [2] [min] | half-life [3] [min] | half-life [4] [min] | Cl (total plasma clearance) (sc) [mL/min/kg] | Vd (volume of distribution) (sc) [L/kg] | AUC (male, C57B/L6J, mouse, plasma, iv) [ng·h/mL] | MRT (male, C57B/L6J, mouse, plasma, iv, iv) [min] | half-life (male, C57B/L6J, mouse, plasma, iv, iv, read-out: t1/2lbd1 (distribution half-life) (converted)) [min] | half-life (male, C57B/L6J, mouse, plasma, iv, iv, read-out: t1/2lbdz (elimination half-life) (converted)) [min] | clearance (male, C57B/L6J, mouse, plasma, iv, read-out: Cl (total plasma clearance) (converted)) [mL/min/kg] | Vd (male, C57B/L6J, mouse, plasma, iv, read-out: Vd (volume of distribution)) [L/kg] | Compound |
| --- | --- | --- | --- | --- | --- | --- | --- | --- | --- | --- | --- | --- | --- | --- |
| 211000 | 25600 | 240 | 349 | 125 | 752 | 0.83 | 1 | – | – | – | – | – | – | CCCCCCCCCCCCCCCC(=O)NCCCC[C@H](NC(=O)[C@H](CCC(=O)O)NC(=O)[C@H](CCCNC(=N)N)NC(=O)[C@H](CO)NC(=O)[C@H](CCC(N)=O)NC(=O)[C@H](C)NC(=O)[C@H](CCCNC(=N)N)NC(=O)[C@H](Cc1ccccc1)NC(=O)[C@H](Cc1ccc(O)cc1)NC(=O)[C@H](CCCNC(=N)N)NC(=O)[C@H](CCC(=O)O)NC(=O)[C@H](CCC(=O)O)NC(=O)[C@H](CCC(=O)O)NC(=O)[C@H](C)NC(=O)[C@H](CCC(N)=O)NC(=O)[C@H](CCC(=O)O)NC(=O)[C@H](CCCNC(=N)N)NC(=O)[C@H](CCCCN)NC(=O)CNC(=O)[C@H](Cc1ccccc1)NC(=O)[C@H](C)NC(=O)CNC(=O)CNC(=O)[C@H](C)NC(=O)[C@H](CCC(=O)O)NC(=O)[C@H](CCCNC(=N)N)NC(=O)[C@@H](NC(=O)[C@H](CO)NC(=O)CNC(=O)[C@H](C)NC(=O)CNC(=O)[C@H](CCCNC(=N)N)NC(C)=O)[C@@H](C)CC)C(N)=O [peptide of formula (II), CH3CO-[SEQ ID NO: 1]-K-[palmitoyl]-NH2] (Ac-RGAGSIREAGGAFGKREQAEEERYFRAQSREK(Palmitoyl)-NH2) |
| 6140 | 8290 | 15 | 33 | 11.4 | 12.6 | – | 0.5 | 13300 | 8.4 | 3.6 | 15.6 | 31.7 | 0.7 | Ac-RGAGSIREAGGAFGKREQAEEERYFRAQSRE-NH2 [peptide of formula (I), CH3CO-[SEQ ID NO: 1]-NH2] |
